According to paper PMC10484922, “Discovery of a selective and biologically active low-molecular weight antagonist of human interleukin-1β” (Nature Communications, 2023):
Entries after “also recorded” stand apart in the source; their conditions may differ.

Experiments:
Type in all cases: cell-based
[1] = test system: normal human dermal fibroblasts stimulated with hIL-1α; test: Human fibroblast IL-6 release assay, hIL-1α stimulated; design: IL-1alpha (mean, SD): mean readout (IL-6 release): unit not given here; conditions: for Mean OD (OD 450nm) / IL-1alpha (mean, SD): mean readout (IL-6 release): Figure 3c; for Mean OD (OD 450nm): compound 500 nM; for IL-1alpha (mean, SD): mean readout (IL-6 release): compound @ 50uM
Method: We used HEK-Blue™ IL-1β cells that respond specifically to IL-1 (# hkb-il1b, InvivoGen). These cells can detect IL-1α and IL-1β, as these cytokines bind to the same receptor, IL-1R1. They express a Seap reporter gene under the control of the IFN-β minimal promoter fused to five NF-kappaB and five AP-1 binding sites. Thirty microliters (300,000 cells/ml) per well of a 384-well plate were plated overnight. Cells were then stimulated with graded concentrations of cytokines (hIL-1α or hIL-1β) in the absence or presence of canakinumab (Ilaris®, ILARI LYVI 150MG 22GLW.012, batch U003 0409)[22], anakinra (Kineret®, 100 mg/0.67 ml injectable solution, Sobi)[23], or compound (S)-2 (compounds were pre-mixed for 1 h with the cytokine prior to addition to cells) and further incubated overnight before assessment of Seap activity.
Normal human dermal fibroblasts (NHDF) from Clonetics^TM (LONZA, Cat # CC-2509 (NHDF-Neo), Lot # 0000234242, used at passage ≤14) were seeded at a density of 5000 cells/well in 100 μL of culture medium using 96-well plates (flat bottom, TCT). Treatment with cytokines/compounds was performed as described above. Cells were incubated for another 6 h and were subsequently spun down (320g/3 min). IL-6 was measured in the supernatant by ELISA (BioLegend, # 430503) or HTRF (Cisbio, #62HIL06PEH).

[2] = test system: CHO IL-1R1 reporter cell line stimulated with IL-1β; test: NanoBiT reporter assay, CHO IL-1R1 cells, IL-1β driven; design: average: scale not given here; conditions: for average: IL-1beta
Method: (§1) Reporter cell system for NanoBiT assay
(§2) CHO IL-36R or CHO IL-1R1 reporter cell lines, prepared internally (Klemens Ka u p ma n n ), based on tagged IL-1RAcP and Myd88 proteins using the NanoBiT complementation system, were seeded at a densi ty of 10’000 cells/well in 30 µL of OptiMEM + 0.1 % FCS medium using 384-well plates (white, TCT), for 24 hours.
(§3) Before the treatment, the medium was removed, 20 µL of NanoGlo substrate, (#N2012, Pr o me g a ) were added to the wells. Following substrate addi ti on, 240 nL of compound were added to the wells using an ECH O dispenser device. Then, 3.76 µL of the ligand IL-36g (Novartis) at 200 ng/mL end concentration or recombinant IL-1b (Novartis) at 500 pg/mL end concentration were added to the mix. Luminescence was measured at 405 nm after 30 min incubation (Pherastar reader). […]

[3] = test system: CHO IL-36R reporter cell line stimulated with IL-36γ; test: NanoBiT reporter assay, CHO IL-36R cells, IL-36γ driven; design: average: scale not given here
Method: as §1, §2, §3

Cc1ccc2c(c1)NC(=O)[C@@]2(c1cn[nH]c1)c1cc(-c2ccc(C(=O)O)cc2C(=O)O)ccc1O [Compound (S)-2]
effect on hIL-1α driven IL-6 release [1]: had no effect on hIL-1α driven IL-6 release | Mean OD (OD 450nm) ([1]; hu IL-1A 0 pg/mL): 0.031 | Mean OD (OD 450nm) ([1]; hu IL-1A 40 pg/mL): 0.372 | Mean OD (OD 450nm) ([1]; hu IL-1A 80 pg/mL): 0.573 | Mean OD (OD 450nm) ([1]; hu IL-1A 120 pg/mL): 0.693 | Mean OD (OD 450nm) ([1]; hu IL-1A 160 pg/mL): 0.736 | Mean OD (OD 450nm) ([1]; hu IL-1A 200 pg/mL): 0.751 | IL-1alpha (mean, SD): mean readout (IL-6 release) ([1]; hu IL-1a 0 pg/mL): 0 | IL-1alpha (mean, SD): mean readout (IL-6 release) ([1]; hu IL-1a 40 pg/mL): 1994.8 | IL-1alpha (mean, SD): mean readout (IL-6 release) ([1]; hu IL-1a 80 pg/mL): 3486.9 | IL-1alpha (mean, SD): mean readout (IL-6 release) ([1]; hu IL-1a 120 pg/mL): 4374.4 | IL-1alpha (mean, SD): mean readout (IL-6 release) ([1]; hu IL-1a 160 pg/mL): 4691.2 | IL-1alpha (mean, SD): mean readout (IL-6 release) ([1]; hu IL-1a 200 pg/mL): 4802.2 | IL-1β-driven NanoBiT reporter activity [2]: inhibited the reporter activity driven | average ([2]; EXP1, conc 0.00610352 uM): -2.539 | average ([2]; EXP1, conc 0.012207 uM): 1.596 | average ([2]; EXP1, conc 0.0244141 uM): -3.451 | average ([2]; EXP1, conc 0.0488281 uM): 3.112 | average ([2]; EXP1, conc 0.0976562 uM): 2.615 | average ([2]; EXP1, conc 0.195312 uM): -0.4746 | average ([2]; EXP1, conc 0.390625 uM): 9.543 | average ([2]; EXP1, conc 0.78125 uM): 7.593 | average ([2]; EXP1, conc 1.5625 uM): 13.469 | average ([2]; EXP1, conc 3.125 uM): 26.7566 | average ([2]; EXP1, conc 6.25 uM): 37.1219 | average ([2]; EXP1, conc 12.5 uM): 46.91 | average ([2]; EXP1, conc 25 uM): 52.2595 | average ([2]; EXP1, conc 50 uM): 56.8016 | average ([2]; EXP1, conc 100 uM): 68.8694 | average ([2]; EXP2, conc 0.00610352 uM): -2.716 | average ([2]; EXP2, conc 0.012207 uM): 3.9057 | average ([2]; EXP2, conc 0.0244141 uM): -3.335 | average ([2]; EXP2, conc 0.0488281 uM): 6.501 | average ([2]; EXP2, conc 0.0976562 uM): 5.016 | average ([2]; EXP2, conc 0.195312 uM): 1.522 | average ([2]; EXP2, conc 0.390625 uM): 11.9124 | average ([2]; EXP2, conc 0.78125 uM): 10.8854 | average ([2]; EXP2, conc 1.5625 uM): 17.5198 | average ([2]; EXP2, conc 3.125 uM): 31.5581 | average ([2]; EXP2, conc 6.25 uM): 41.289 | average ([2]; EXP2, conc 12.5 uM): 51.7241 | average ([2]; EXP2, conc 25 uM): 56.0031 | average ([2]; EXP2, conc 50 uM): 59.3287 | average ([2]; EXP2, conc 100 uM): 71.2739 | average ([2]; EXP3, conc 0.00610352 uM): 1.19 | average ([2]; EXP3, conc 0.012207 uM): 3.77 | average ([2]; EXP3, conc 0.0244141 uM): 3.912 | average ([2]; EXP3, conc 0.0488281 uM): 4.68 | average ([2]; EXP3, conc 0.0976562 uM): -1.021 | average ([2]; EXP3, conc 0.195312 uM): 3.354 | average ([2]; EXP3, conc 0.390625 uM): 4.389 | average ([2]; EXP3, conc 0.78125 uM): 9.349 | average ([2]; EXP3, conc 1.5625 uM): 13.3994 | average ([2]; EXP3, conc 3.125 uM): 22.0107 | average ([2]; EXP3, conc 6.25 uM): 30.3621 | average ([2]; EXP3, conc 12.5 uM): 43.476 | average ([2]; EXP3, conc 25 uM): 49.8685 | average ([2]; EXP3, conc 50 uM): 57.8931 | average ([2]; EXP3, conc 100 uM): 64.0514 | IL-36γ-driven NanoBiT reporter activity [3]: without effect on IL-36g-driven activity; also recorded: no inhibitory activity | average ([3]; IL-36, EXP1, conc 0.00610352 uM): -8.032 | average ([3]; IL-36, EXP1, conc 0.012207 uM): -2.7959 | average ([3]; IL-36, EXP1, conc 0.0244141 uM): -4.066 | average ([3]; IL-36, EXP1, conc 0.0488281 uM): -1.337 | average ([3]; IL-36, EXP1, conc 0.0976562 uM): -10.0933 | average ([3]; IL-36, EXP1, conc 0.195312 uM): -6.363 | average ([3]; IL-36, EXP1, conc 0.390625 uM): -11.0347 | average ([3]; IL-36, EXP1, conc 0.78125 uM): -4.52 | average ([3]; IL-36, EXP1, conc 1.5625 uM): -4.793 | average ([3]; IL-36, EXP1, conc 3.125 uM): -8.376 | average ([3]; IL-36, EXP1, conc 6.25 uM): -1.775 | average ([3]; IL-36, EXP1, conc 12.5 uM): -2.393 | average ([3]; IL-36, EXP1, conc 25 uM): -11.2956 | average ([3]; IL-36, EXP1, conc 50 uM): -8.608 | average ([3]; IL-36, EXP1, conc 100 uM): 2.894 | average ([3]; IL-36, EXP2, conc 0.00610352 uM): -0.8565 | average ([3]; IL-36, EXP2, conc 0.012207 uM): -0.8771 | average ([3]; IL-36, EXP2, conc 0.0244141 uM): 16.4182 | average ([3]; IL-36, EXP2, conc 0.0488281 uM): -7.751 | average ([3]; IL-36, EXP2, conc 0.0976562 uM): 10.3597 | average ([3]; IL-36, EXP2, conc 0.195312 uM): 5.839 | average ([3]; IL-36, EXP2, conc 0.390625 uM): 4.392 | average ([3]; IL-36, EXP2, conc 0.78125 uM): 8.396 | average ([3]; IL-36, EXP2, conc 1.5625 uM): 12.4114 | average ([3]; IL-36, EXP2, conc 3.125 uM): 6.063 | average ([3]; IL-36, EXP2, conc 6.25 uM): 0.8781 | average ([3]; IL-36, EXP2, conc 12.5 uM): 10.8339 | average ([3]; IL-36, EXP2, conc 25 uM): 7.445 | average ([3]; IL-36, EXP2, conc 50 uM): 10.4408 | average ([3]; IL-36, EXP2, conc 100 uM): 12.6091 | average ([3]; IL-36, EXP3, conc 0.00610352 uM): 2.096 | average ([3]; IL-36, EXP3, conc 0.012207 uM): -6.441 | average ([3]; IL-36, EXP3, conc 0.0244141 uM): 4.8088 | average ([3]; IL-36, EXP3, conc 0.0488281 uM): -5.951 | average ([3]; IL-36, EXP3, conc 0.0976562 uM): -4.784 | average ([3]; IL-36, EXP3, conc 0.195312 uM): -4.89 | average ([3]; IL-36, EXP3, conc 0.390625 uM): -47.4888 | average ([3]; IL-36, EXP3, conc 0.78125 uM): -7.151 | average ([3]; IL-36, EXP3, conc 1.5625 uM): -6.215 | average ([3]; IL-36, EXP3, conc 3.125 uM): -8.634 | average ([3]; IL-36, EXP3, conc 6.25 uM): -10.5486 | average ([3]; IL-36, EXP3, conc 12.5 uM): -5.26 | average ([3]; IL-36, EXP3, conc 25 uM): -17.1151 | average ([3]; IL-36, EXP3, conc 50 uM): -4.192 | average ([3]; IL-36, EXP3, conc 100 uM): -4.987
